Earlier results, collected in patent US20120064058A1, “COMPOSITIONS FOR PROTEIN-BASED DIETARY PRODUCTS” (ITALFARMACIA SRL, priority 2008, published 2012).

Tests used:
[1] = test system: rats
[2] = test system: diabetic rats
[3] = compared with untreated diabetic rats

In the case of `N=C(N)NCCC[C@H](N)C(=O)O` [L-Arginine], the “excretion of orotic acid in the urine” value [1] is given as “less excretion of orotic acid in the urine” and the kidney hypertrophy ([1]; long-term consequence of a protein rich regimen) is given as “can prevent kidney hypertrophy”.

In the case of `NCCS(=O)(=O)O` [L-Taurine], the renal functionality [2] is listed as “beneficial effects on renal functionality”.

For `NCC(=O)O` [Glycine], the “expression of O-acetyl sialic acid in brain vessels” value [2, 3] is given as “diminished expression”, the “incidence of opacity in lens and microaneurysms in the eyes” value [2, 3] is given as “reduced incidence” and the corporal weight loss ([2]; in comparison with non-treated animals) is given as “less intense corporal weight loss”.
